Experimental data from US20060258697A1, “Method of augmenting the antitumor activity of anticancer agents” (priority 2003, published 2006).
Like-named read-outs stand apart in the source and are kept apart here.

Experiments:
[1] = tested on: FaDu squamous cell carcinoma of the head and neck xenografts; test: Cure rate / antitumor activity in nude mice bearing FaDu head and neck xenografts; type: in vivo; conditions: for % CR of Surviving Animals FaDu: without or with MSC 0.2 mg/mouse/d
Experimental: (§1) 5-Methylselenocysteine (MSC). Two schedules were evaluated: 1) in combination with irinotecan, MSC (0.2 mg/mouse/d×28) was administered orally for 28 days with the first dose administered daily for seven days prior to the weekly drug administration and 2) in combination with other drugs, MSC was administered orally (0.2 mg/mouse/d×14) daily for 14 days with the first dose administered daily for seven days prior to the single i.v. administration of taxol, CDDP, Dox, taxotere and cyclophosphamide.
(§2) Anticancer drug administration. The anticancer drugs administration schedule was as follows. • i. Irinotecan (CPT-11), weekly i.v. push for four (4) weeks, • ii. Taxol, single i.v. push, • iii. Cisplatin (CDDP), single i.v. push. • iv. Doxorubin (Dox), single i.v. push. • v. Cyclophosphamide, single i.v. push. • vi. Oxaliplatin, single i.v. push • vii. Taxotere, single i.v. push
Tumor Xenografts. […] The following tumor xenografts were established. • i. HCT-8: poorly-differentiated colon carcinoma, expressing wild type p53 • ii. HT-29: well-differentiated colon carcinoma expressing mutant p53 • iii. A253: well-differentiated squamous cell carcinoma of the head and neck (SCCHN) expressing no p53 • iv. FaDu: poorly-differentiated squamous cell carcinoma of the head and neck (SCCHN) expressing mutant p53 […]
(§3) This example describes the modulation of the antitumor activity of anticancer drugs by MSC in mice bearing human tumors. […] To determine whether modulation of the therapeutic efficacy and cure of irinotecan by MSC is drug specific, the antitumor activity of drugs, representing different classes and mechanisms of action were evaluated alone and in combination with non-toxic doses and schedules of MSC (0.2 mg/mouse/d×14) in xenografts bearing human A253 and FaDu (SCCHN) tumors (FIG. 5). The data in FIG. 5 represent the use of the MTD doses of cisplatin (8 mg/kg×1), cyclophosphamide (100 mg/kg×1), taxol (35 mg/kg ×1.) and doxorubicin (10 mg/kg×1).
In mice, MSC was orally administered at 0.2 mg/mouse/d with the first daily dose administered seven days prior to single i.v. administration of drug and continuous for additional seven days for a total MSC treatment of 14 days.

[2] = tested on: A253 squamous cell carcinoma of the head and neck xenografts; test: Cure rate / antitumor activity in nude mice bearing A253 head and neck xenografts; type: in vivo
Experimental: as §1, §2
(§4) Tumor Xenografts. […] The following tumor xenografts were established. • i. HCT-8: poorly-differentiated colon carcinoma, expressing wild type p53 • ii. HT-29: well-differentiated colon carcinoma expressing mutant p53 • iii. A253: well-differentiated squamous cell carcinoma of the head and neck (SCCHN) expressing no p53 • iv. FaDu: poorly-differentiated squamous cell carcinoma of the head and neck (SCCHN) expressing mutant p53
This example describes the comparative antitumor activity of MSC and SLM in combination with the maximum tolerated dose of irinotecan. […] As an illustration, MSC and SLM were used in combination with irinotecan. The results, shown in FIG. 3, represent a comparative evaluation of the effect of MSC and SLM (0.2 mg/mouse/d×28) on the antitumor activity of irinotecan (100 mg/kg/wk×4).
To determine whether therapeutic synergy achieved with irinotecan in xenografts is specific for MSC, the antitumor activity of irinotecan with and without two selenium-containing compounds, MSC and SLM were compared in xenografts bearing A253 (SCCHN) tumors for the […] (200 mg/kg/wk×4). The data compare the antitumor activity of MSC with SLM in combination with irinotecan (200 mg/kg/wk×4).
as §3

in vivo [3] = conditions: nude, mouse
in vivo [4] = conditions: rat
HT-29 colon xenografts = test: Cure rate / antitumor activity in nude mice bearing HT-29 colon xenografts; type: in vivo; conditions: for HT-29 CR (%) / HT-29 PR (%): drug 100 mg/kg/week i.v. × 4, MSC 0.2 mg/day/mouse p.o. 42 days started 21 days before drug; for % CR of Surviving Animals HT-29: without or with MSC 0.2 mg/mouse/d
HCT-8 colon xenografts = test: Cure rate / antitumor activity in nude mice bearing HCT-8 colon xenografts; type: in vivo; conditions: for HCT-8 CR (%) / HCT-8 PR (%): drug 100 mg/kg/week i.v. × 4, MSC 0.2 mg/day/mouse p.o. 42 days started 21 days before drug; for % CR of Surviving Animals HCT-8: without or with MSC 0.2 mg/mouse/d
Experimental: as §1, §2, §4
(§5) This example describes the evaluation of the effect of selenium containing compounds on the antitumor activity of irinotecan. […] Irinotecan was administered at 100 mg/kg/wk for 4 weeks (MTD) and 200 mg/kg/wk for 4 weeks (toxic) alone and in combination with 0.2 mg/mouse/d of MSC for 28 days to nude mice bearing HCT-8 colon xenografts.
For these experiments, FUra was administered by i.v. push weekly times 4 and MSC by p.o. once a day for 6 weeks, the first dose being given 3 weeks before FUra administration. Irinotecan was administered by i.v. 100 mg/kg/week once a week for 4 weeks and MSC (0.2 mg/day), by p.o. daily for 28 days with the first dose started 7 days prior to irinotecan treatment.

nude mice = test: Irinotecan lethality / survival with and without selenium compound; type: in vivo; conditions: for Survivor (%): without or with MSC 0.2 mg/mouse/d × 28 p.o.
Experimental: as §5, with “xenografts. […] Thus, MSC potentiates the efficacy of irinotecan by increasing cure rate and by decreasing toxicity.” for “xenografts.”
Nude mice (5 mice/group; experiment repeated ≧3 times) were treated with 0.2 mg/mouse/day of SLM (data replicated with MSC) for 21, 7, 3, 1, or 0 days prior to initiation of weekly IV irinotecan at 2 ×the MTD (at 200mg/kg/week×4). […] 3 days pre-treatment was associated with 80% survivorship while 0-1 days were associated with 60% (45% survivorship for irinotecan alone) (FIG. 13). Thus, the optimal duration of pre-treatment with SLM 0.2mg/mouse/day for maximum protection against irinotecan lethality was identified to be at least 1 week.

normal nude mice = test: Toxicity of selenium compounds alone in normal nude mice; type: in vivo; conditions: 0.2 mg/mouse/day for 28 days orally
Experimental: However, it was observed that when cure rates were evaluated, selenium increased the efficacy of only irinotecan and taxotere. While not intending to be bound by any particular theory, it is considered that potentiation of the efficacy of anticancer drugs is associated with increased antitumor activity and decreased toxicity.

rat = test: Reduction of doxorubicin toxicity by selenium compounds in rats; type: in vivo; conditions: 0.5 mg/day/rat daily for 14 days, started 7 days prior to doxorubicin; data not shown
[5] = Table 3 first column pair (head printed 'FaUra'), drug dose mg/kg and MSC mg/mouse/day in parentheses of Treatment
[6] = Table 3 first column pair (head printed 'FaUra'), drug dose mg/kg and MSC mg/mouse/day in parentheses of Treatment, schedules per footnote
[7] = Table 3 (A253), drug dose mg/kg and MSC mg/mouse/day in parentheses of Treatment

N.N.[Cl][Pt][Cl] [Cisplatin, cisplatin]
MTD (mg/kg) Mice (Mice; drug alone (−) or with MSC (+)): 8 mg/kg | PR (%) (partial tumor regression, >50% tumor reduction) [1, 5]: 0% | CR (%) (complete tumor regression) [1, 6]: 0% | CR (%) (complete tumor regression) [2, 7]: 0% | PR (%) (partial tumor regression, >50% tumor reduction) [2, 7]: 0%

O=P1(N(CCCl)CCCl)NCCCO1 (stereo not drawn) [Cyclophosphamide, cyclophosphamide]
MTD (in vivo [3]): 100 mg/kg | CR (%) (complete tumor regression) ([1]; mouse, in vivo): 0% | PR (%) (partial tumor regression, >50% tumor reduction) ([1]; mouse, in vivo): 0% | CR (%) (complete tumor regression) ([2]; mouse, in vivo): 0% | PR (%) (partial tumor regression, >50% tumor reduction) ([2]; mouse, in vivo): 0%

COc1cccc2c1C(=O)c1c(O)c3c(c(O)c1C2=O)C[C@@](O)(C(=O)CO)C[C@@H]3O[C@H]1C[C@H](N)[C@H](O)[C@H](C)O1 [Doxorubicin, doxorubicin]
MTD (mg/kg) Mice (Mice; nude, mouse, in vivo): 10 mg/kg | PR (%) (partial tumor regression, >50% tumor reduction) [1, 5]: 0% | CR (%) (complete tumor regression) [1, 6]: 0% | CR (%) (complete tumor regression) [2, 7]: 0% | PR (%) (partial tumor regression, >50% tumor reduction) [2, 7]: 60% | MTD (in vivo [4]): 6 mg/kg

O=c1[nH]cc(F)c(=O)[nH]1 [FUra]
HT-29 CR (%) (HT-29 colon xenografts): 0% | HT-29 PR (%) (HT-29 colon xenografts): 0% | HCT-8 CR (%) (HCT-8 colon xenografts): 0% | HCT-8 PR (%) (HCT-8 colon xenografts): 0% | CR (%) (complete tumor regression) [1, 6]: 0% | CR (%) (complete tumor regression) [2, 7]: 0% | PR (%) (partial tumor regression, >50% tumor reduction) [2, 7]: 0%

CCc1c2c(nc3ccc(OC(=O)N4CCC(N5CCCCC5)CC4)cc13)-c1cc3c(c(=O)n1C2)COC(=O)[C@]3(O)CC [Irinotecan, irinotecan]
HT-29 CR (%) (HT-29 colon xenografts): 0% | HT-29 PR (%) (HT-29 colon xenografts): 0% | % CR of Surviving Animals HT-29 (HT-29 colon xenografts; irinotecan 100 mg/kg/wk × 4): 0% | % CR of Surviving Animals HT-29 (HT-29 colon xenografts; irinotecan 200 mg/kg/wk × 4): 10% | maximum tolerated weekly dose (Mice; weekly i.v. for 4 weeks, nude mice): 100 mg/kg/wk | HCT-8 CR (%) (HCT-8 colon xenografts): 20% | HCT-8 PR (%) (HCT-8 colon xenografts): 20% | % CR of Surviving Animals HCT-8 (HCT-8 colon xenografts; irinotecan 100 mg/kg/wk × 4): 20% | % CR of Surviving Animals HCT-8 (HCT-8 colon xenografts; irinotecan 200 mg/kg/wk × 4): 30% | PR (%) (partial tumor regression, >50% tumor reduction) [1, 5]: 50% | CR (%) (complete tumor regression) [1, 6]: 30% | % CR of Surviving Animals FaDu ([1]; irinotecan 100 mg/kg/wk × 4): 30% | % CR of Surviving Animals FaDu ([1]; irinotecan 200 mg/kg/wk × 4): 50% | CR (%) (complete tumor regression) [2, 7]: 10% | PR (%) (partial tumor regression, >50% tumor reduction) [2, 7]: 30% | % CR of Surviving Animals A253 ([2]; irinotecan 100 mg/kg/wk × 4, without or with MSC 0.2 mg/mouse/d): 20% | % CR of Surviving Animals A253 ([2]; irinotecan 200 mg/kg/wk × 4, without or with MSC or SLM 0.2 mg/mouse/d): 40% | Survivor (%) (nude mice; irinotecan 100 mg/kg/wk × 4 i.v.): 100% | survivorship (nude mice; irinotecan 200 mg/kg/week × 4 alone (Example 8)): 45% | Survivor (%) (nude mice; irinotecan 200 mg/kg/wk × 4 i.v.): 50% | lethality (nude mice; irinotecan 300 mg/kg/wk × 4, alone or with MSC): 100% | Survivor (%) (nude mice; irinotecan 300 mg/kg/wk × 4 i.v.): 0%

C[Se]C[C@H](N)C(=O)O [MSC, 5-methylselenocysteine]
toxicity of selenium compound alone (normal nude mice): not to be toxic | reducing toxicity of doxorubicin (rat): effective in reducing toxicity | lowest effective dose in attenuating irinotecan toxicity (nude mice; nude mice, p.o. daily): 0.01 mg/day
